{
  "source": "patent US5770623A",
  "about": "“Argine antagonists for inhibition of systemic hypotension associated with nitric oxide production or endothelial derived relaxing factor” (Board of Regents, The University of Texas System, priority 1995, dated 1998)",
  "key": {"control dogs": {"tested_on": "control dogs", "test": "L-NMA in control dogs (Example 4)", "assay_type": "in vivo, dog", "details": "for increase in blood pressure (SAP) by L-NMA: control dogs, L-NMA 20 mg/kg, n=4", "protocol": "Animals: Studies were carried out on 12 conditioned mongrel dogs (9 males and 3 females) weighing 22-32 kg (avg=25.3 kg). Animal care was in accordance with the recommendations of the American Association for Accreditation of Laboratory Animal Care, and met all standards prescribed by the Guide for the Care and Use of Laboratory Animals (Guide for the Care and Use of Laboratory Animals (1978) Dept. of Health, Education and Welfare, Washington, D.C. (Publ. No. 78-23). Animal protocols were approved by The University of Texas Animal Welfare Committee. The dogs were fasted overnight prior to the day of experimentation. They were anesthetized with sodium pentobarbital (25 mg/kg I.v.). Dogs were then endotracheally intubated and ventilated with a piston-driven respirator (Harvard instruments) using room air at a tidal volume of 20 ml/kg and at a rate of 10 to 12 breaths per minute, adjusted to achieve a normal arterial pH and pCO2 (Instrumentation Laboratories 1L13012 pH/Blood Gas Analyzer). Catheters were placed percutaneously into the femoral and pulmonary arteries; In the latter, a flow-directed thermal-dilation catheter was used (Abbott Critical Care Systems).\nPhysiologic measurements: Mean SAP and heart rate were continuously monitored (Parametron 7048 Monitoring System, Roche) and stored on a magnetic disk using an analog-to-digital converter (Scientific Solutions, Inc.). Cardiac output (CO) was determined as the mean of six measurements by thermal-dilution. Systemic vascular resistance was calculated as (SAP X80)/CO and expressed as […].\nProtocol: After the blood pressure and heart rate stabilized, endotoxin (40 ug/kg, in 10 ml of phosphate-buffered saline (PBS), pH 7.4) was infused i.v. over 2 minutes. This dose of endotoxin typically induces severe and often lethal cardiovascular collapse in the dog. Blood pressure was monitored, and when either SAP fell below 60 mmHg or a stable nadir in systemic arterial pressure (SAP) was maintained for 10 minutes, L-NMA was administered (20 mg/kg in 5 ml of PBS i.v. over 1 min.). In most experiments, L-arginine (400 mg/kg in 20 mi PBS) was administered ten minutes later by i.v. infusion over 2 minutes. In control experiments, dogs without prior exposure to endotoxin received L-NMA alone. To simulate the hypotension observed in dogs receiving endotoxin, one group of dogs received a continuous i.v. infusion of nitroglycerin (2 mg/ml) at a rate adjusted to maintain the SAP at 60-70 mm Hg. Nitroglycerin-treated dogs then received L-NMA (20 mg/kg) and 20 minutes later L-arginine was administered […]."}, "[1]": {"tested_on": "systemic hypotension mediated by interleukin-1", "test": "Interleukin-1 mediated systemic hypotension", "assay_type": "in vivo", "details": "after N^G-aminoarginine"}, "[2]": {"tested_on": "bovine aortic endothelial cells (BAEC)", "test": "A23187-stimulated nitrite release from bovine aortic endothelial cells", "assay_type": "cell-based", "details": "3 μg/ml A23187, 4-hour, FIG. 12", "protocol": "The % inhibition of relaxation is calculated from the maximum ACh-induced relaxation observed in the presence of the arginine analog relative to that in its absence. Points represent mean values±SEM (n=4-6). […] Another N^G substitution tested for inhibition of induced nitrite release had two methyl groups on one of the arginine guanidino nitrogens. Concentration-response relationships for inhibition of A23187-stimulated nitrite release by bovine aortic endothelial cells (BAEC) are shown in FIG. 9a for the N,N-disubstituted derivative in comparison with several monosubstituted derivatives. Nitrite production was measured as an indication of nitric oxide synthesis since nitric oxide spontaneously decays to nitrite. Nitrite production by BAEC in a 2-hr. period was assessed in an L-arginine-free medium alone or in the presence of the indicated concentration of arginine analogs. The points plotted represent means±S.E. of the percent inhibition of nitrite production observed in 3 individual BAEC culture wells. The key on FIG. 9a indicates the groups substituted on the guanidino nitrogens of L-arginine.\nPoints are mean values±SEM (n=3)."}, "anesthetized guinea pig": {"tested_on": "anesthetized guinea pig", "test": "Pressor effect in the anesthetized guinea pig", "assay_type": "in vivo", "details": "1-10 mg/kg i.v. (L-NMA)", "from_the_text": "Points are mean changes in diastolic arterial pressure (±SEM; n=4-5). Control systolic and diastolic BP was 75±3 and 51±3 mm Hg, respectively."}, "L929 cells": {"tested_on": "L929 cells", "test": "Cytolytic activity of rh-TNF against Actinomycin D-treated L929 cells", "assay_type": "cell-based, murine", "protocol": "TNF bioactivity was measured by the cytotoxicity towards murine L929 cells, in vitro."}, "[3]": {"tested_on": "human LAK cells against Raji target cells", "test": "IL-2 mediated lymphokine activated killer cell activity in vitro", "assay_type": "cell-based", "method": "*% Lysis calculated from the % of release of radioactivity from ^51\nCrlabeled Raji Target cells minus spontaneous release."}, "[4]": {"tested_on": "mongrel dogs with TNF-induced hypotension", "details": "Kilbourn et al. 1990; listed as L-NMA; cited from earlier work"}},
  "note": "Entries after “also recorded” stand apart in the source; their conditions may differ.",
  "data": [
    {"smiles": "N=C(N)NCCC[C@H](N)C(=O)O", "note": "[L-arginine, reference compound]", "values": [
      {"measurement": "effect of L-arginine on pressor effect of L-NMA", "setting": "control dogs; 400 mg/kg", "value": "fully reversed the pressor effect of L-NMA"},
      {"measurement": "effect of L-arginine on the reversal", "setting": "[1]", "value": "obviated this reversal"}
    ]},
    {"smiles": "CNC(=N)NCCC[C@H](N)C(=O)O", "note": "[NMMA, N^G -methyl-L-arginine]", "values": [
      {"measurement": "effect on EDRF/NO (nitrite) release", "setting": "[2]", "value": "inhibits EDRF/NO release"},
      {"measurement": "effect on diastolic BP / pressor effect (words)", "setting": "anesthetized guinea pig", "value": "increase the resting blood pressure"},
      {"measurement": "effect on diastolic BP / pressor effect (words)", "setting": "anesthetized guinea pig; listed as L-NMA", "value": "sustained rise in diastolic BP"},
      {"measurement": "Cardiac Output", "setting": "control dogs; Table 2, control dogs (n = 4)", "value": "2.12 ± 0.26", "unit": "L/min"},
      {"measurement": "Heart Rate", "setting": "control dogs; Table 2, control dogs (n = 4)", "value": "82.5 ± 6.1", "unit": "beats/min"},
      {"measurement": "Systemic Arterial Pressure", "setting": "control dogs; Table 2, control dogs (n = 4)", "value": "153.8 ± 11.4", "unit": "mmHg"},
      {"measurement": "Systemic Vascular Resistance", "setting": "control dogs; Table 2, control dogs (n = 4)", "value": "5967 ± 523", "unit": "dynes-sec/cm^5"},
      {"measurement": "increase in blood pressure (SAP) by L-NMA", "setting": "control dogs; listed as L-NMA", "value": "24.8±2.7", "unit": "mmHg"},
      {"measurement": "increase in blood pressure (SAP) by L-NMA", "setting": "control dogs; listed as N^G -methyl-L-arginine", "value": "24.8±4.7", "unit": "mmHg"},
      {"measurement": "increase in SVR", "setting": "control dogs; other two control dogs", "value": "about 1400 dynes-sec/cm^5"},
      {"measurement": "decrease in cardiac output", "setting": "control dogs; two of four control dogs", "value": "> 1.5", "unit": "L/min"},
      {"measurement": "increase in SVR", "setting": "control dogs; two of four control dogs with marked decrease of cardiac output", "value": "≥ 3500", "unit": "dynes-sec/cm^5"},
      {"measurement": "TNF Activity", "setting": "L929 cells; [NMMA] 0.125 mM", "value": 536.9, "unit": "Units/ml"},
      {"measurement": "TNF Activity", "setting": "L929 cells; [NMMA] 0.250 mM", "value": 538.2, "unit": "Units/ml"},
      {"measurement": "TNF Activity", "setting": "L929 cells; [NMMA] 0.500 mM", "value": 562.4, "unit": "Units/ml"},
      {"measurement": "TNF Activity", "setting": "L929 cells; [NMMA] 1.0 mM", "value": 415.7, "unit": "Units/ml"},
      {"measurement": "effect on cytolytic effect of TNF towards tumor cells", "setting": "L929 cells; murine L929 cells, in vitro", "value": "did not alter the cytolytic effect of TNF"},
      {"measurement": "% Target Cell Lysis", "setting": "[3]; [NMMA] 2.0 mM, E:T = 80:1, 40 U/ml IL2", "value": "75.1 ± 4.1", "unit": "%"},
      {"measurement": "effect on proliferation phase or lytic phase of LAK cells", "setting": "[3]; exposed to IL-2, in vitro", "value": "did not alter"},
      {"measurement": "anti-tumor activity of IL-2 in vitro", "setting": "[3]; in vitro", "value": "does not inhibit the anti-tumor activity"},
      {"measurement": "reversal of TNF-induced hypotension", "setting": "[4]", "value": "completely reversed; also recorded: substantially reversed"}
    ]}
  ]
}
